Data: US20170071976A1, “PHARMACEUTICAL SOLUTION HAVING ANTI-TUMOR EFFECT-ENHANCING AND TOXICITY-REDUCING EFFECT, AND PHARMACEUTICAL COMPOSITION COMPRISING SAME” (priority 2014, published 2017)

What was measured:
[1] = test system: HCT-116 colon cancer cell line; experiment: MTT assay: in vitro inhibition of growth by deuterium oxide; type: cell-based, human
Description: (§1) Studies of in vitro inhibition of growth of human tumor cells by deuterium oxide, by the MTT (3-(4,5-dimethylthiazol-2-yl)-2,5-diphenyltetrazolium bromide) assay
(§2) 1. A bottle of cells that had been cultured for 3 to 4 days and were in the exponential phase was taken, a suitable amount of 0.25% Trypsin-EDTA solution was added thereto to detach the cells from the wall, and the cells were suspended in 10 ml RPMI 1640 medium containing 10% FBS. 2. The cells were counted on a hemocytometer, and generally viable cells should be not less than 97%. 3. The cell suspension was diluted with a complete medium to prepare a suspension containing 1×10^4 cells/ml. 4. To each well of a 12-well culture plate, 300 μl cell suspension was added. The addition of cells should be finished within 4 hours. The plate was placed in an incubator at 37° C. and 5% CO2 for 24 hours. 5. Powdery RPMI Medium 1640 (Gibco, USA, Cat#: 31800-022) was dissolved in deuterium oxide (provided by Cambridge Isotope Laboratories, Inc. (US)) to prepare a cell culture medium (unless particularly specified, all culture media used in the Examples hereinafter were prepared from powdery RPMI Medium 1640 and deuterium oxide) at a concentration shown in Table 1, which was added into the cell culture plate. 6. The cell culture plate was incubated for 3 days in an incubator at 37° C., 5% CO2 and 100% humidity. 7. A solution of 1 mg/ml MTT was prepared in a serum-free RPMI1640 medium, added to the plate at 200 μl/well, and incubated at 37° C. for 4 hours, to allow MTT to be reduced to formazan. 8. The supernatant was removed by pipetting, 200 μl DMSO was added to dissolve formazan, and the solution was well mixed on a platform shaker. 9. Absorbance of each well was measured on an ELISA reader with a detection wavelength of 570 nm and a reference wavelength of 450 nm. 10. The assay was repeated one more time.
(§3) Calculation of results: Inhibition of growth of tumor cells by deuterium oxide was calculated using tumor cells treated with sodium chloride physiological solution as a control group. Inhibition of cell growth was plotted against amounts of deuterium oxide to obtain a dose response curve, from which the half maximal inhibitory concentration (IC50) of deuterium oxide was derived.
(§4) Inhibition of tumor cell growth (%)=(1−OD test/OD control)×100%

[2] = test system: Caov-3 ovarian cancer cell line; experiment: as above; type: cell-based, human; details: expressed in v/v %
Description: as §1, §2, §3, §4

[3] = test system: ASPC-1 pancreatic cancer cell line; experiment: as above; type: cell-based, human
Description: as §1, §2, §3, §4

adult human = experiment: Theoretical extrapolation of the toxic deuterium oxide body content to an adult human; details: adult human of 60 kg body weight
Description: Deuterium oxide (heavy water, D2O, Mw: 20.03, CAS No. 7789-20-0) can be isolated from seawater. A normal body of adult human contains about 5 g deuterium oxide. […] Based on this experimental result, theoretically, assuming the body weight of an adult human is 60 kg, deuterium oxide that reaches 18 kg in the body starts to cause toxicity. However, it is actually impossible for a human body to have 18 kg deuterium oxide. […] Therefore, deuterium oxide should be a non-toxic substance [D. M. Czajka: Am. J. Physiol.

dogs = details: exogenous deuterium oxide; cited from earlier work
[4] = test system: Ehrlich ascites tumor (EAC); experiment: Survival of Ehrlich ascites tumor-bearing mice, intraperitoneal perfusion (lavage) with deuterium oxide and 5-FU; type: in vivo, ICR mice; details: i.p., 10 days; for MST: control 14.1 ± 1.9
Description: Studying 1: Efficacy of intraperitoneal perfusion (lavage) with deuterium oxide in combination with 5-fluorouracil on Ehrlich ascites tumor (EAC)-bearing mice.
Laboratory animal: 4 to 5 week-aged male ICR mice, provided by Shanghai SIPPR-BK Laboratory Animal Co. Ltd.
1. Modeling: EAC ascitic fluid was taken and adjusted to 1×10^7 cells/ml, which was inoculated into the peritoneal cavity of mice at 0.1 ml/mouse. 2. Grouping and dosing: the animals were randomized 3 days after inoculation, and meanwhile drugs were given to mice in each group, following the dosing scheme shown in Table 10.
In Table 10, “Sodium chloride deuterium oxide solution 0.1 ml/animal+5-FU 20 mg/kg” means that each mouse was given 0.1 ml sodium chloride deuterium oxide solution, in which 5-FU had been dissolved to make a dose of 20 mg/kg.
After the dosing, ascitic fluid was taken from 3 mice from each group, the volume of the ascitic fluid was measured, the number of tumor cells in the ascitic fluid was counted, and the rest of animals were continuously fed. Median survival time (MST) was recorded for animals in each group to evaluate the survival time for each group.
The comparison between the treatment group and the control group was expressed by T/C (%) which is calculated by the following equation: […]
T MST: MST of the treatment group; C MST: MST of the negative control group.
The evaluation criterion uses 125% as a cut-off threshold. When T/C %≧125%, effective, otherwise ineffective.
The mean value was expressed in X±SD. Inter-group analysis was statistically performed with t test. The results were statistically analyzed using SPSS (Statistical Package for the Social Science) 17.0.

[2H]O[2H] [Deuterium oxide]
Inhibition of growth (%) ([1]; deuterium oxide 1.2% (v/v)): 11.81%
Inhibition of growth (%) ([1]; deuterium oxide 2.5% (v/v)): 31.55%
Inhibition of growth (%) ([1]; deuterium oxide 5% (v/v)): 21.64%
Inhibition of growth (%) ([1]; deuterium oxide 10% (v/v)): 18.58%
Inhibition of growth (%) ([1]; deuterium oxide 20% (v/v)): 23.32%
Inhibition of growth (%) ([1]; deuterium oxide 30% (v/v)): 30.21%
Inhibition of growth (%) ([1]; deuterium oxide 40% (v/v)): 37.43%
Inhibition of growth (%) ([1]; deuterium oxide 50% (v/v)): 48.43%
Inhibition of growth (%) ([1]; deuterium oxide 60% (v/v)): 66.31%
Inhibition of growth (%) ([1]; deuterium oxide 70% (v/v)): 70.42%
Inhibition of growth (%) ([1]; deuterium oxide 80% (v/v)): 94.62%
IC10 ([1]; expressed in v/v %): 0.25%
IC50 ([1]; expressed in v/v %): 51.13%
IC10 [2]: 11.51%
IC50 [2]: 46.83%
Inhibition of growth (%) ([3]; deuterium oxide 1.2% (v/v)): 0.64%
Inhibition of growth (%) ([3]; deuterium oxide 2.5% (v/v)): 6.35%
Inhibition of growth (%) ([3]; deuterium oxide 5% (v/v)): −0.20%
Inhibition of growth (%) ([3]; deuterium oxide 10% (v/v)): −4.88%
Inhibition of growth (%) ([3]; deuterium oxide 20% (v/v)): −7.26%
Inhibition of growth (%) ([3]; deuterium oxide 30% (v/v)): 9.70%
Inhibition of growth (%) ([3]; deuterium oxide 40% (v/v)): 23.99%
Inhibition of growth (%) ([3]; deuterium oxide 50% (v/v)): 44.14%
Inhibition of growth (%) ([3]; deuterium oxide 60% (v/v)): 52.22%
Inhibition of growth (%) ([3]; deuterium oxide 70% (v/v)): 70.14%
Inhibition of growth (%) ([3]; deuterium oxide 80% (v/v)): 85.83%
IC10 ([3]; expressed in v/v %): 11.80%
IC50 ([3]; expressed in v/v %): 57.00%
amount in the body that starts to cause toxicity (adult human): 18 kg
concentration in the body that causes a toxic effect (dogs): 30%

O=c1[nH]cc(F)c(=O)[nH]1 [Example 5-FU, 5-fluorouracil]
T/C(%) ([4]; 5-FU 20 mg/kg in NS): 154.6%
MST ([4]; 5-FU 20 mg/kg in NS): 21.8 ± 2.9 days
T/C(%) ([4]; 5-FU 30 mg/kg in NS): 158.1%
MST ([4]; 5-FU 30 mg/kg in NS): 22.3 ± 4.9 days
